This note sets out measurements from ChEMBL document CHEMBL1201862, “PubChem BioAssay data set” (2004).

Some test systems named below: ACHN; M14; U-251; NCI-H522; NCI-H226; SK-MEL-2; HCT-15; OVCAR-4; SNB-75; HCC 2998; OVCAR-3; COLO 205; SF-539; UACC-257; Malme-3M; CAKI-1; KM12; UACC-62; A498.
Common to all, as to test: NCI-60 cell line screen, 48 h

SMILES strings stand for the structures.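 Protocol summary: plate cells (96-well), add compound at 5 concentrations, incubate 48 h, interpolate endpoints linearly. GI50: concentration for 50% inhibition of growth.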 Calls of active or inactive are those of the source. Cut-off read from the data, not from the text of the source: active = GI50 up to about 1.1 µM and inactive = higher. A value given as a limit tells only on which side of the number the result lay.

Consider `COC(=O)[C@@H]1CSC(=S)N1C(=O)C[C@H]1CC=CC[C@H]1CC(=O)Sc1ccccc1`, for which the GI50 with ACHN is 17.6 µM (inactive); in the assay on M14, 16.7 µM (inactive); with U-251, 15.5 µM (inactive); with NCI-H522 it was 12 µM (inactive); in the assay on NCI-H226, 23.7 µM (inactive); in the assay on SK-MEL-2, 22.2 µM (inactive). The GI50 with HCT-15 is 16.2 µM; in the assay on OVCAR-4, > 10 µM (inactive); with SNB-75, 15.4 µM (inactive); with HCC 2998 it was 17.9 µM (inactive); in the assay with OVCAR-3, 19.2 µM (inactive); in the assay on COLO 205 it was 19.5 µM (inactive). Besides, the GI50 in the assay on SF-539 was 17.8 µM (inactive); with UACC-257, 18.5 µM (inactive); in the assay with Malme-3M, 21.5 µM (inactive); in the assay on CAKI-1 it was > 10 µM (inactive); with KM12, 15.1 µM (inactive); with UACC-62 it was 19.3 µM (inactive).
Turning to `O=C1NC(=O)C(=Cc2c3ccccc3cc3ccccc23)C(=O)N1`, the GI50 with ACHN was > 100 µM (inactive); in the assay on M14 it was > 100 µM (inactive); with U-251, > 100 µM (inactive); in the assay on NCI-H522, > 100 µM (inactive); with HCT-15, greater than 100 µM; with A498, > 100 µM (inactive). The GI50 in the assay on COLO 205 was > 100 µM (inactive); with SF-539 it was > 100 µM (inactive); with CAKI-1 it was 47.2 µM (inactive); with UACC-62, > 100 µM (inactive).
`O=C1CC2CCN(C(=O)c3ccccc3)CC2CCN1.O=C1CCC2CC(C(=O)c3ccccc3)CCC2CN1` (stereo not drawn): the GI50 in the assay on ACHN, in the assay on M14, with U-251, in the assay with NCI-H522, in the assay with NCI-H226 and in the assay on SK-MEL-2 was > 100 µM (inactive) in each case. Further, the GI50 with HCT-15 was greater than 100 µM; with OVCAR-4, > 100 µM (inactive); in the assay with SNB-75 it was > 100 µM (inactive); in the assay on HCC 2998, > 100 µM (inactive); in the assay on OVCAR-3, > 100 µM (inactive); with COLO 205, > 100 µM (inactive). Also, the GI50 was > 100 µM (inactive) in the assay with SF-539; > 100 µM (inactive) in the assay with UACC-257; > 100 µM (inactive) in the assay with Malme-3M; > 100 µM (inactive) with CAKI-1; > 100 µM (inactive) with KM12; 52.1 µM (inactive) in the assay with UACC-62.
Turning to `CCCCCNC(=O)C1C(=O)N(CCCCC)C(=O)/C1=N\N` (stereo not drawn), the GI50 with ACHN was 59.8 µM (inactive); with M14, 57.9 µM (inactive); in the assay with U-251, 30.1 µM (inactive); in the assay on NCI-H522, 31.6 µM (inactive); with SK-MEL-2 it was 35.2 µM (inactive); in the assay on HCT-15, 59.2 µM. The GI50 with A498 was > 100 µM (inactive); in the assay with OVCAR-4 it was 61.8 µM (inactive); with HCC 2998 it was 35.3 µM (inactive); in the assay with OVCAR-3 it was 46.8 µM (inactive); with COLO 205, > 100 µM (inactive); in the assay with SF-539, 59.4 µM (inactive). The GI50 was > 100 µM (inactive) in the assay on UACC-257, > 100 µM (inactive) with Malme-3M, 53.2 µM (inactive) in the assay on KM12 and 43.5 µM (inactive) in the assay on UACC-62.
Consider `NCCCNCCCCN(CCCN)/[N+]([O-])=N\O`, for which the GI50 with ACHN was > 100 µM (inactive); in the assay with M14, > 100 µM (inactive); in the assay on NCI-H226, > 100 µM (inactive); with SK-MEL-2, > 100 µM (inactive); with HCT-15 it was greater than 100 µM; in the assay with OVCAR-4, > 100 µM (inactive). For the same compound, the GI50 with SNB-75 was 89.3 µM (inactive); with HCC 2998 it was > 100 µM (inactive); with OVCAR-3, > 100 µM (inactive); in the assay with COLO 205 it was > 100 µM (inactive); in the assay on SF-539 it was > 100 µM (inactive); in the assay on UACC-257, > 100 µM (inactive). The GI50 in the assay with Malme-3M, in the assay with CAKI-1, in the assay with KM12 and in the assay with UACC-62 was > 100 µM (inactive) each time.
Consider `O=C(CCc1ccc(O)cc1)c1c(O)cc(O)cc1OC1OC(CO)C(O)C(O)C1O` (stereo not drawn), for which the GI50 was > 100 µM (inactive) in the assay on ACHN; > 100 µM (inactive) in the assay on M14; > 100 µM (inactive) in the assay on SK-MEL-2; greater than 100 µM in the assay with HCT-15; > 100 µM (inactive) in the assay on A498; > 100 µM (inactive) with OVCAR-4. Besides, the GI50 with SNB-75, in the assay with HCC 2998, in the assay with OVCAR-3, in the assay on COLO 205, in the assay with SF-539 and with UACC-257 was > 100 µM (inactive) in each case. Also, the GI50 with Malme-3M, in the assay with CAKI-1, in the assay with KM12 and in the assay on UACC-62 was > 100 µM (inactive) each time.
With `CC(=O)OCC(OC(C)=O)C(OC(C)=O)C(OC(C)=O)C(=O)CNn1c(-c2ccc(C)cc2)nc2ccccc2c1=O` (stereo not drawn), the GI50 is > 100 µM (inactive) with ACHN; > 100 µM (inactive) in the assay on M14; > 100 µM (inactive) in the assay on U-251; 57.9 µM (inactive) in the assay on NCI-H522; > 100 µM (inactive) in the assay with SK-MEL-2; greater than 100 µM in the assay on HCT-15. The GI50 with A498 was > 100 µM (inactive); with OVCAR-4, > 100 µM (inactive); in the assay with SNB-75 it was 53.1 µM (inactive); in the assay on OVCAR-3 it was > 100 µM (inactive); with COLO 205 it was > 100 µM (inactive); with SF-539 it was > 100 µM (inactive). The GI50 is > 100 µM (inactive) in the assay on UACC-257; > 100 µM (inactive) in the assay on Malme-3M; 90.2 µM (inactive) with CAKI-1; > 100 µM (inactive) in the assay on KM12; 60.5 µM (inactive) with UACC-62.
As to `Cc1nn(-c2ccccc2)c2nc(N3CCOCC3)nnc12`, the GI50 in the assay with ACHN is 71.9 µM (inactive); with M14, 97.1 µM (inactive); in the assay with U-251 it was 52.8 µM (inactive); in the assay on SK-MEL-2, 51.3 µM (inactive); in the assay on HCT-15, 65 µM; with A498, 66.1 µM (inactive). The GI50 with OVCAR-4 was 34.7 µM (inactive); in the assay with SNB-75 it was 40.3 µM (inactive); in the assay on HCC 2998, > 100 µM (inactive); in the assay on OVCAR-3 it was 88.7 µM (inactive); in the assay on COLO 205 it was > 100 µM (inactive); in the assay with SF-539, 24.4 µM (inactive). Further, the GI50 in the assay with UACC-257 is > 100 µM (inactive); in the assay with Malme-3M, 64 µM (inactive); with CAKI-1, 39.6 µM (inactive); in the assay on KM12, > 100 µM (inactive); with UACC-62 it was 69.2 µM (inactive).
On to `O=c1[nH]cc(COCC(O)CO)c(=O)[nH]1` (stereo not drawn), for which the GI50 with ACHN, in the assay with M14, in the assay on U-251, in the assay with NCI-H522, in the assay on NCI-H226 and with SK-MEL-2 was > 100 µM (inactive) throughout. The GI50 with HCT-15 was greater than 100 µM; in the assay with A498, > 100 µM (inactive); in the assay with OVCAR-4, > 100 µM (inactive); with SNB-75, > 100 µM (inactive); in the assay on OVCAR-3, > 100 µM (inactive); with COLO 205, > 100 µM (inactive). The GI50 in the assay on SF-539, in the assay on UACC-257, in the assay with Malme-3M, in the assay on CAKI-1, in the assay with KM12 and with UACC-62 was > 100 µM (inactive) each time.
With `CCOC(=O)c1s/c(=N\Nc2nc3ccccc3cc2C2OCCO2)n(Cc2ccccc2)c1C`, the GI50 in the assay on ACHN, in the assay on M14, in the assay on U-251, in the assay with NCI-H522, in the assay with NCI-H226 and in the assay with SK-MEL-2 was > 100 µM (inactive) in each case. Besides, the GI50 was greater than 100 µM with HCT-15; > 100 µM (inactive) in the assay with A498; > 100 µM (inactive) in the assay with OVCAR-4; > 100 µM (inactive) in the assay on SNB-75; > 100 µM (inactive) with OVCAR-3; > 100 µM (inactive) in the assay with COLO 205. The GI50 in the assay with SF-539, in the assay on UACC-257, with Malme-3M, with CAKI-1, with KM12 and in the assay on UACC-62 was > 100 µM (inactive) in each case.
For `Nc1nc(SCCC/C=C/B(O)O)nc2c1ncn2C1OC(COP(=O)(O)O)C(O)C1O` (stereo not drawn), the GI50 is > 203 µM (inactive) in the assay with ACHN; > 203 µM (inactive) in the assay with M14; > 203 µM (inactive) in the assay on U-251; 115 µM (inactive) with NCI-H522; > 203 µM (inactive) in the assay on NCI-H226; > 203 µM (inactive) with SK-MEL-2. Further, the GI50 with HCT-15 was greater than 203 µM; in the assay on A498, > 203 µM (inactive); with OVCAR-4, > 203 µM (inactive); in the assay with SNB-75, > 203 µM (inactive); in the assay on OVCAR-3, > 203 µM (inactive); with COLO 205 it was > 203 µM (inactive). Besides, the GI50 in the assay with SF-539, with UACC-257, in the assay with Malme-3M, in the assay with CAKI-1, with KM12 and with UACC-62 was > 203 µM (inactive) each time.
Turning to `CN(CCN(C)C(=O)CCn1cc(F)c(=O)[nH]c1=O)C(=O)CCn1cc(F)c(=O)[nH]c1=O`, the GI50 in the assay with ACHN was > 100 µM (inactive); in the assay on M14, > 100 µM (inactive); in the assay with U-251, > 100 µM (inactive); in the assay on NCI-H522 it was 3.16 µM (inactive); in the assay on NCI-H226 it was > 100 µM (inactive); with SK-MEL-2 it was > 100 µM (inactive). Moreover, the GI50 in the assay with HCT-15 was greater than 100 µM; in the assay on OVCAR-4, > 100 µM (inactive); in the assay on SNB-75, 36.2 µM (inactive); in the assay on HCC 2998, > 100 µM (inactive); in the assay with OVCAR-3, > 100 µM (inactive); with COLO 205, > 100 µM (inactive). Besides, the GI50 with SF-539 was 95.5 µM (inactive); in the assay on Malme-3M, > 100 µM (inactive); with KM12 it was > 100 µM (inactive); in the assay on UACC-62, > 100 µM (inactive).
